# Measured values from patent US4400199A, “Thiolcarbamate compounds and their use as herbicides” (priority 1981, dated 1983).
# What was measured:
# barnyard grass = assay: Experiment 2: herbicidal effects against barnyard grass (pot test, granules); format: in vivo, Echinochloa crus-galli; details: 2.5 leaf-stage, 25 days
# broad-leaf weeds = assay: Experiment 2: herbicidal effects against broad-leaf weeds (pot test, granules); format: in vivo; details: 25 days
# [1] = test system: Hotarui (Scirpus juncoides); assay: Experiment 2: herbicidal effects against Hotarui (pot test, granules); format: in vivo; details: 25 days
# [2] = test system: barnyard grass (Echinochloa crus-galli); assay: Experiment 1: herbicidal effects against barnyard grass (pot test, emulsifiable concentrate); format: in vivo; details: 25 days
# [3] = test system: Mizugayatsuri (Cyperus serotinus); assay: Experiment 2: herbicidal effects against Mizugayatsuri (pot test, granules); format: in vivo; details: 25 days
# [4] = Experiment 4: subacute toxicity to fish; format: in vivo, 2-year-old carps; details: carp, water; 0.2 ppm; 3 weeks; read-out: Survival rate after 3 weeks
# Method: (§1) With respect to the compounds according to the present invention and the comparative compounds listed in Table 4, there were conducted tests on subacute toxicity to 2-year-old carps having an average weight of 20 g.
# (§2) Ten 2-year-old carps were released in each of 25-liter water tanks equipped with an air-blowing apparatus and acclimatized to the surroundings while feeding for 10 days. Water in each of the water tanks was continuously replaced with fresh water so that the residence time of water in the water tanks is 6 hours. Each test compound was added to a predetermined quantity of supply water to prepare a 0.2 ppm aqueous solution of each compound, and each of the aqueous solutions was continuously added to the water in the tank. After three weeks, the hematocrit values of all the survival carps were determined. The hematocrit value used herein is intended to mean a volume percentage of erythrocyte contained in the blood.
# carps = assay: Experiment 4: subacute toxicity to fish; format: in vivo, 2-year-old carps; details: 0.2 ppm; 3 weeks
# Method: as §1, §2
# [5] = 1.5 leaf-stage of barnyard grass, 150 g/10a.
# [6] = 1.5 leaf-stage of barnyard grass, 300 g/10a.
# [7] = 1.5 leaf-stage of barnyard grass, 600 g/10a.
# [8] = 3 leaf-stage of barnyard grass, 150 g/10a.
# [9] = 3 leaf-stage of barnyard grass, 300 g/10a.
# [10] = 3 leaf-stage of barnyard grass, 600 g/10a.
SMILES,herbicidal activity (barnyard grass) (barnyard grass; 150 g/10a.),herbicidal activity (barnyard grass) (barnyard grass; 300 g/10a.),herbicidal activity (barnyard grass) (barnyard grass; 600 g/10a.),Herbicidal activity broad-leaf weeds (broad-leaf weeds; 150 g/10a.),Herbicidal activity broad-leaf weeds (broad-leaf weeds; 300 g/10a.),Herbicidal activity broad-leaf weeds (broad-leaf weeds; 600 g/10a.),Herbicidal activity Hotarui (Scirpus juncoides) ([1]; 150 g/10a.),Herbicidal activity Hotarui (Scirpus juncoides) ([1]; 300 g/10a.),Herbicidal activity Hotarui (Scirpus juncoides) ([1]; 600 g/10a.),"herbicidal activity (barnyard grass) [2, 5]","herbicidal activity (barnyard grass) [2, 6]","herbicidal activity (barnyard grass) [2, 7]","herbicidal activity (barnyard grass) [2, 8]","herbicidal activity (barnyard grass) [2, 9]","herbicidal activity (barnyard grass) [2, 10]",Herbicidal activity Mizugayatsuri (Cyperus serotinus) ([3]; 150 g/10a.),Herbicidal activity Mizugayatsuri (Cyperus serotinus) ([3]; 300 g/10a.),Herbicidal activity Mizugayatsuri (Cyperus serotinus) ([3]; 600 g/10a.),survival at 504 h [4] [%],Average Hematocrit Value of survival fish (carps) [%]
"CC1CCCCN1C(=O)SCCCCCCCCCl (stereo not drawn) [Compound 4, S-(8-chlorooctyl)-(2-methyl)-piperidine-1-carbothioate]",4 (70 to 89%),5 (more than 90%),5 (more than 90%),3 (50 to 69%),4 (70 to 89%),5 (more than 90%),2 (30 to 49%),4 (70 to 89%),5 (more than 90%),5 (more than 90%),5 (more than 90%),5 (more than 90%),4 (70 to 89%),5 (more than 90%),5 (more than 90%),2 (30 to 49%),3 (50 to 69%),5 (more than 90%),–,–
"CSC(=O)N1CC(C)CCC(C)C1 (centres unmarked) [Compound 14, reference compound]",–,–,–,–,–,–,–,–,–,–,–,–,–,3 (50 to 69%),–,–,–,–,–,–
"CCSC(=O)N1CC(C)CCC(C)C1 (centres unmarked) [Compound 15, reference compound]",–,–,–,–,–,–,–,–,–,–,–,–,–,3 (50 to 69%),–,–,–,–,–,–
"CCCSC(=O)N1CC(C)CCC(C)C1 (centres unmarked) [Compound 16, reference compound]",–,–,–,–,–,–,–,–,–,–,–,–,–,3 (50 to 69%),–,–,–,–,–,–
"CC1CCCCN1C(=O)SCCCCCCl (stereo not drawn) [Compound 2, S-(5-chloropentyl)-(2-methyl)-piperidine-1-carbothioate]",5 (more than 90%),5 (more than 90%),5 (more than 90%),5 (more than 90%),5 (more than 90%),5 (more than 90%),3 (50 to 69%),4 (70 to 89%),5 (more than 90%),5 (more than 90%),5 (more than 90%),5 (more than 90%),5 (more than 90%),5 (more than 90%),5 (more than 90%),3 (50 to 69%),4 (70 to 89%),5 (more than 90%),100,30
"CC1CCC(C)CN(C(=O)SCCCCCCCl)C1 (stereo not drawn) [Compound 8, S-(6-chlorohexyl)-3,6-dimethyl-hexahydro-1H-azepine-1-carbothioate]",–,–,–,–,–,–,–,–,–,5 (more than 90%),5 (more than 90%),5 (more than 90%),5 (more than 90%),5 (more than 90%),5 (more than 90%),–,–,–,100,35
"CCCCCCCCCCSC(=O)N1CC(C)CCC(C)C1 (centres unmarked) [Compound 19, reference compound]",–,–,–,–,–,–,–,–,–,–,–,–,–,1 (10 to 29%),–,–,–,–,–,–
"CC1CCCCN1C(=O)SCCCCCCCl (stereo not drawn) [Compound 3, S-(6-chlorohexyl)-(2-methyl)-piperidine-1-carbothioate]",5 (more than 90%),5 (more than 90%),5 (more than 90%),4 (70 to 89%),5 (more than 90%),5 (more than 90%),3 (50 to 69%),4 (70 to 89%),5 (more than 90%),5 (more than 90%),5 (more than 90%),5 (more than 90%),4 (70 to 89%),5 (more than 90%),5 (more than 90%),4 (70 to 89%),4 (70 to 89%),5 (more than 90%),–,–
"CCCCSC(=O)N1CC(C)CCC(C)C1 (centres unmarked) [Compound 17, reference compound]",–,–,–,–,–,–,–,–,–,–,–,–,–,3 (50 to 69%),–,–,–,–,–,–
"CC1CCCCN1C(=O)SCCCCCCCCCCCl (stereo not drawn) [Compound 5, S-(10-chlorodecyl)-(2-methyl)-piperidine-1-carbothioate]",–,5 (more than 90%),5 (more than 90%),–,4 (70 to 89%),5 (more than 90%),–,4 (70 to 89%),5 (more than 90%),–,5 (more than 90%),5 (more than 90%),–,4 (70 to 89%),5 (more than 90%),–,3 (50 to 69%),5 (more than 90%),–,–
"CC1CCC(C)CN(C(=O)SCCCCCCCl)C1 (stereo not drawn) [Compound, S-(6-chlorohexyl)-3,6-dimethyl-hexahydro-1H-azepine-1-carbothioate]",5 (more than 90%),5 (more than 90%),–,3 (50 to 69%),5 (more than 90%),–,3 (50 to 69%),5 (more than 90%),–,–,–,–,–,–,–,2 (30 to 49%),4 (70 to 89%),–,–,–
